According to publication PMC11345841, “Exploring 2-Sulfonylpyrimidine Warheads as Acrylamide Surrogates for Targeted Covalent Inhibition: A BTK Story” (Journal of Medicinal Chemistry, 2024):
Like-named read-outs stand apart in the source and are kept apart here.

Legend:
Experiment in all cases: KINOMEscan ScanTK
Format in all cases: binding
[1] = target: T1, ABL1(F317L)-phosphorylated (Homo sapiens, UniProt P00519, F317L)
T1 construct: purchased Eurofins DiscoverX KINOMEscan (scanTK)

ABL1-nonphosphorylated = target: T2, ABL1-nonphosphorylated (Homo sapiens, UniProt P00519)
T2 construct: purchased Eurofins DiscoverX KINOMEscan (scanTK)
T2 sequence (P00519 whole entry): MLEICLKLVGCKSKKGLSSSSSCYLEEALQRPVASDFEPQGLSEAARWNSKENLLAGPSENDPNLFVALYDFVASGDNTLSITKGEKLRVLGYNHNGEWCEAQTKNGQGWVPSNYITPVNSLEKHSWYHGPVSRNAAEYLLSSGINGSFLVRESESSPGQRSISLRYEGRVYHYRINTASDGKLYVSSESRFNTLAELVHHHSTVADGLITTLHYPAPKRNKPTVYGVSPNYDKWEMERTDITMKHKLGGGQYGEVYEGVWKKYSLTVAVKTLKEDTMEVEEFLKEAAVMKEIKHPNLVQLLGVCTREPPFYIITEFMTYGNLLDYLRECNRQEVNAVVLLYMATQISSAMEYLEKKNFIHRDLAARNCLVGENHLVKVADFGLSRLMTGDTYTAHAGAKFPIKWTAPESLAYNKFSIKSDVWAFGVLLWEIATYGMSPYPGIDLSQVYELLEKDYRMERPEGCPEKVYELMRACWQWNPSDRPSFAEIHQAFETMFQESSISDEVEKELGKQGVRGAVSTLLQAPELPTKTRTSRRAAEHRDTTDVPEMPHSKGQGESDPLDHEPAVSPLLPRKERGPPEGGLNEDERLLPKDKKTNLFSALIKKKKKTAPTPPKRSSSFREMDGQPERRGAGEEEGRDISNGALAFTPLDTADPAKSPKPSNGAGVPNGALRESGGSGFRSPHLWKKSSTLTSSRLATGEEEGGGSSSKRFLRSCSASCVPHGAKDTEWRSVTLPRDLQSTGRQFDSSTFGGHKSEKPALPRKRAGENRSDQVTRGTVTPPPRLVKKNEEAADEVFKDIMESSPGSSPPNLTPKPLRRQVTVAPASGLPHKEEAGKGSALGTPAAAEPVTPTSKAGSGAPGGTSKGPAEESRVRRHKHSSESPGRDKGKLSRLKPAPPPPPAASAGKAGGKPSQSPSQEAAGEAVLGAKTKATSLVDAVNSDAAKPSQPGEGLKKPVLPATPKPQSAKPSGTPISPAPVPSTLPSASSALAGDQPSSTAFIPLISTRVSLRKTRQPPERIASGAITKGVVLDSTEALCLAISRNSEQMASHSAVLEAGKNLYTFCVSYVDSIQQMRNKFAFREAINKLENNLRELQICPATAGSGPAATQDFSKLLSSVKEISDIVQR

AXL = target: T3, AXL (Homo sapiens, UniProt P30530)
T3 construct: purchased Eurofins DiscoverX KINOMEscan (scanTK)
T3 sequence (P30530 26-894): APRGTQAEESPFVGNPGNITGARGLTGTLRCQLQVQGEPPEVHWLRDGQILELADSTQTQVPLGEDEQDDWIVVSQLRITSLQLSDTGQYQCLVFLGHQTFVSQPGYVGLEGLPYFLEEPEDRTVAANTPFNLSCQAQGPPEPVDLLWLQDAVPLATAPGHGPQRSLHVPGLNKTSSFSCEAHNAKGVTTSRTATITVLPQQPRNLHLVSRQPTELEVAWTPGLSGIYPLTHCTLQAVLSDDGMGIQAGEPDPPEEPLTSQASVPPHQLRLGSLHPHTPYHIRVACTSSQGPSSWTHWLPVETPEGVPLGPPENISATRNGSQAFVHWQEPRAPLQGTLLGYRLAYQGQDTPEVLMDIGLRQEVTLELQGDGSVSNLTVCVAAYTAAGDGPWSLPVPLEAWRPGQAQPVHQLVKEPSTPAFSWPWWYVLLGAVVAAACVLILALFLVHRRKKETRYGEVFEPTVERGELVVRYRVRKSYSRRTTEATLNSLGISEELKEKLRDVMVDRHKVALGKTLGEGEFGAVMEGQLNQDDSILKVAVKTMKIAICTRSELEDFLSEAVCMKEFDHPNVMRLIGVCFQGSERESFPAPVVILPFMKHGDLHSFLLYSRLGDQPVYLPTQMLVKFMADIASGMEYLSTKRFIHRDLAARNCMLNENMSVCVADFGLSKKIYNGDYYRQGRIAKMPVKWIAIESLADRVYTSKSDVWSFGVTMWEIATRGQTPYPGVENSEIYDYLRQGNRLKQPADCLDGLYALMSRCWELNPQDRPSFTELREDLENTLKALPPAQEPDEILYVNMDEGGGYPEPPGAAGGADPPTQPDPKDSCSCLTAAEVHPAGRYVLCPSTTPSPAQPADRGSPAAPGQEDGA

BTK = target: T4, BTK (Homo sapiens, UniProt Q06187); conditions: for remaining binding at 1 µM: BTK
T4 construct: purchased Eurofins DiscoverX KINOMEscan (scanTK)
T4 sequence (Q06187 whole entry): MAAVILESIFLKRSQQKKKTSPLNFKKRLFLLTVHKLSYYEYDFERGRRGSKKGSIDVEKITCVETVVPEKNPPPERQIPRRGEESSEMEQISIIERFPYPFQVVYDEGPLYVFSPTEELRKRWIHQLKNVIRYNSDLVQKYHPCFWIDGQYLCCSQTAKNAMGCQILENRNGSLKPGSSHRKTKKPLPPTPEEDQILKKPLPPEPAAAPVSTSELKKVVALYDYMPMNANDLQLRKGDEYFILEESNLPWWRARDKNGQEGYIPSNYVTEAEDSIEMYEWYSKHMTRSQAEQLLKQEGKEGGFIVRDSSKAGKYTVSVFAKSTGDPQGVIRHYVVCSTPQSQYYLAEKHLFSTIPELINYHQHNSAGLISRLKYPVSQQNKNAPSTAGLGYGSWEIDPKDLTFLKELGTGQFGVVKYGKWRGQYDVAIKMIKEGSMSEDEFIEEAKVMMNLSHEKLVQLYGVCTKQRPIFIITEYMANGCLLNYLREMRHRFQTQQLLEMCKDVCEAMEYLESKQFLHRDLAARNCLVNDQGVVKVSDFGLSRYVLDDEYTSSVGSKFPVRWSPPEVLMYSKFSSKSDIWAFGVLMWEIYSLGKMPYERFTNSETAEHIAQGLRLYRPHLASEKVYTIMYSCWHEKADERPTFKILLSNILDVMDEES

DDR1 = target: T5, DDR1 (Homo sapiens, UniProt Q08345)
T5 construct: purchased Eurofins DiscoverX KINOMEscan (scanTK)
T5 sequence (Q08345 19-913): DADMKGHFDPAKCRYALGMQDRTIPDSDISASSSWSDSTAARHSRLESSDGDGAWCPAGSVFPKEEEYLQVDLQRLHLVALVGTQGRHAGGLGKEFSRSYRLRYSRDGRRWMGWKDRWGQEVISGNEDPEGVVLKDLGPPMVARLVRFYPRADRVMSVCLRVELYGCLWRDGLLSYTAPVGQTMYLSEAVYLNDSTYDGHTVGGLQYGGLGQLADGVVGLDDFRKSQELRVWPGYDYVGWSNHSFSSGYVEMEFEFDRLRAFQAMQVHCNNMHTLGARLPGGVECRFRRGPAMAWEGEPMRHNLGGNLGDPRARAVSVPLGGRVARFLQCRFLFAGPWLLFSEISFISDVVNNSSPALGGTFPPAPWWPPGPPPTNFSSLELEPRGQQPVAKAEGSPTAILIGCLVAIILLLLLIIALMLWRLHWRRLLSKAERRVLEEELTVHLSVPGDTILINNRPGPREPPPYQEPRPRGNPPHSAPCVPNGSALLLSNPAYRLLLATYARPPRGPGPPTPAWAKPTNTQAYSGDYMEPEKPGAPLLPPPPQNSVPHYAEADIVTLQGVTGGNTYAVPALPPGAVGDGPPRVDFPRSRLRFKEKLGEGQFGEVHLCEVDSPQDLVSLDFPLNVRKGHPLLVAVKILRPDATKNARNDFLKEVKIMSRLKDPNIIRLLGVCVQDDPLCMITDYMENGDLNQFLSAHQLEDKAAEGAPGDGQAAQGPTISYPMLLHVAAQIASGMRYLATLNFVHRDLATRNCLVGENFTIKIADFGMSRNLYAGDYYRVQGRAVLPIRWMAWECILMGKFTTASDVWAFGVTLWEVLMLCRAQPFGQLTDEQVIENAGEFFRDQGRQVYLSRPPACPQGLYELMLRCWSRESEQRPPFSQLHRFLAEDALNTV

EGFR(G719C) = target: T6, EGFR(G719C) (Homo sapiens, UniProt P00533, G719C)
T6 construct: purchased Eurofins DiscoverX KINOMEscan (scanTK)
T6 sequence (P00533 25-1210 G719C): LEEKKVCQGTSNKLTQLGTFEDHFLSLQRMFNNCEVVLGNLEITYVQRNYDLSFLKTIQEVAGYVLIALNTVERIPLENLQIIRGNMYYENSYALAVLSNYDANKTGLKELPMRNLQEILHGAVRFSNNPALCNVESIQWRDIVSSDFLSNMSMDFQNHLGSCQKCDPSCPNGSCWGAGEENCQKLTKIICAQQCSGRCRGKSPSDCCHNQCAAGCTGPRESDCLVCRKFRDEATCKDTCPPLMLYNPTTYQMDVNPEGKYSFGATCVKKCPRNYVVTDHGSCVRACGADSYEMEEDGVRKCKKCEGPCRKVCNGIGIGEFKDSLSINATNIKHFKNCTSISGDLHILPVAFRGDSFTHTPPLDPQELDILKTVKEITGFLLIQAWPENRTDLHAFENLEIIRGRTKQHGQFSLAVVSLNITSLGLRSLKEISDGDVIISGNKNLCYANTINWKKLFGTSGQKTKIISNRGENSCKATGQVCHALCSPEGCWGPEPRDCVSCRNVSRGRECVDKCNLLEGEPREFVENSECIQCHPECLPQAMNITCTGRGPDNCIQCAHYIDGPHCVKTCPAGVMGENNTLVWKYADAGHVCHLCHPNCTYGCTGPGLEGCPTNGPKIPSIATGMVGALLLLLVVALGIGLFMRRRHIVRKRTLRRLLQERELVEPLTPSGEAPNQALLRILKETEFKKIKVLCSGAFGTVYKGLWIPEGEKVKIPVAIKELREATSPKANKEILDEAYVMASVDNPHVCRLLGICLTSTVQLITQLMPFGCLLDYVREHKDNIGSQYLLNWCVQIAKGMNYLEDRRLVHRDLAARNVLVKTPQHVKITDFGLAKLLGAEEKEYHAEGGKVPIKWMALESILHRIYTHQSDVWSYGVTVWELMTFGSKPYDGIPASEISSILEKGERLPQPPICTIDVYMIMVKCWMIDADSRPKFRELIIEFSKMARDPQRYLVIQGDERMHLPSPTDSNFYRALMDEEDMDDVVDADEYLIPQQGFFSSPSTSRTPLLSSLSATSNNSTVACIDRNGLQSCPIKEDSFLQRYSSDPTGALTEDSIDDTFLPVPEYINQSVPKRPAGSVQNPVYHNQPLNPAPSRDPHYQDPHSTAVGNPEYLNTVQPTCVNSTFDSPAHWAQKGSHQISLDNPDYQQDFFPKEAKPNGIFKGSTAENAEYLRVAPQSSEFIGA

FLT3-autoinhibited = target: T7, FLT3-autoinhibited (Homo sapiens, UniProt P36888)
T7 construct: purchased Eurofins DiscoverX KINOMEscan (scanTK)
T7 sequence (P36888 27-993): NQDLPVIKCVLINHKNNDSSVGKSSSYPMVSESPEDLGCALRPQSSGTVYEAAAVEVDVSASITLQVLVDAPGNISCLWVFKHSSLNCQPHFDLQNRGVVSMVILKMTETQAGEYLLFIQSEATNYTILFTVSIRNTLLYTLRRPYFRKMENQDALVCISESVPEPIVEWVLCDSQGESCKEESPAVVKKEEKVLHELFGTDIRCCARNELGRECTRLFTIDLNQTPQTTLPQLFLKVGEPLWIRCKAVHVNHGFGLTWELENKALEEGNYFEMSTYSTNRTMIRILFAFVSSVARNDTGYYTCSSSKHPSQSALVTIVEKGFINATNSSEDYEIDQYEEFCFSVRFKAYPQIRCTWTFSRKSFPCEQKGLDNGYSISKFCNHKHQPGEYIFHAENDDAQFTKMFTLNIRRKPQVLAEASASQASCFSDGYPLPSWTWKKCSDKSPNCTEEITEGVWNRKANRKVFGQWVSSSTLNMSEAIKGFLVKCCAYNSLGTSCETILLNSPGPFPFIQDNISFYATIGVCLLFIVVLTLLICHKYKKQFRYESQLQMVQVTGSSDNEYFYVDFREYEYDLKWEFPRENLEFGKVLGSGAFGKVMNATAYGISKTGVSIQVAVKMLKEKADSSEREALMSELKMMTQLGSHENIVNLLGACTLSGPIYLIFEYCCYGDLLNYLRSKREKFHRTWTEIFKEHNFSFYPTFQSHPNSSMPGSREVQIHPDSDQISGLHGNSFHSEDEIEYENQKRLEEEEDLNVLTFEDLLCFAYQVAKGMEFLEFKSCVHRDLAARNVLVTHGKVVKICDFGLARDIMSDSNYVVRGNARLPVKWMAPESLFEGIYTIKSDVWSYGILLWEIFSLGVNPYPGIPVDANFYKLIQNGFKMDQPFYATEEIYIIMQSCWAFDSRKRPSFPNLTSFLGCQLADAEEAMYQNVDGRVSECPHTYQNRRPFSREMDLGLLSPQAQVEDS

KIT(A829P) = target: T8, KIT(A829P) (Homo sapiens, UniProt P10721, A829P)
T8 construct: purchased Eurofins DiscoverX KINOMEscan (scanTK)
T8 sequence (P10721 26-976 A829P): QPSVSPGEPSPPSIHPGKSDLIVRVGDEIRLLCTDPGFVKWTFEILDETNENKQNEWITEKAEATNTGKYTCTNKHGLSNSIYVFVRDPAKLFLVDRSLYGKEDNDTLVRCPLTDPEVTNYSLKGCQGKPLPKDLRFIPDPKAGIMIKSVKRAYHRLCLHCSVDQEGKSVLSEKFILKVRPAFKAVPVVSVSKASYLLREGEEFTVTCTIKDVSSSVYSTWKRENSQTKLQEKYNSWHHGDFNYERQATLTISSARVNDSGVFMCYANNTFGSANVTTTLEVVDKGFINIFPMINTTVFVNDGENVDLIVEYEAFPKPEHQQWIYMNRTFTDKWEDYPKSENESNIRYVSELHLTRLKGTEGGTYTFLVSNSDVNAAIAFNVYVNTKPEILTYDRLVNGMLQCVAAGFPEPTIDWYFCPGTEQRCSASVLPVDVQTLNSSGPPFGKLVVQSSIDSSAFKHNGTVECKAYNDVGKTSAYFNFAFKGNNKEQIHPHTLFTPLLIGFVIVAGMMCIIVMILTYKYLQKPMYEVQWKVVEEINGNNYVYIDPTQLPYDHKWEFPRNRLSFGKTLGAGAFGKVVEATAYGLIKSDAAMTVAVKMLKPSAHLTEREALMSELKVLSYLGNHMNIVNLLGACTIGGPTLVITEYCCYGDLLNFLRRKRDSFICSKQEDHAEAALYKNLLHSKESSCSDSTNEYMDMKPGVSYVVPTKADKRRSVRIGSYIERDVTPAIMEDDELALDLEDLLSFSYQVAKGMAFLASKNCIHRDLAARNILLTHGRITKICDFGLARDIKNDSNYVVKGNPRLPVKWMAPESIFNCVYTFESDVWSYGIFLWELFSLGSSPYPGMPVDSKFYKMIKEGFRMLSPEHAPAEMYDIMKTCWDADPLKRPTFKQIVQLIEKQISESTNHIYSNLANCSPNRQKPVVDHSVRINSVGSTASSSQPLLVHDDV

KIT(V559D,V654A) = target: T9, KIT(V559D,V654A) (Homo sapiens, UniProt P10721, V559D/V654A)
T9 construct: purchased Eurofins DiscoverX KINOMEscan (scanTK)
T9 sequence (P10721 26-976 V559D/V654A): as the sequence (P10721 26-976 A829P) above, with V534D, V629A, P804A counted along it

MST1R = target: T10, MST1R (Homo sapiens, UniProt Q04912)
T10 construct: purchased Eurofins DiscoverX KINOMEscan (scanTK)

PDGFRA = target: T11, PDGFRA (Homo sapiens, UniProt P16234)
T11 construct: purchased Eurofins DiscoverX KINOMEscan (scanTK)

T1 sequence (P00519 whole entry F317L): as the sequence (P00519 whole entry) above, with F317L counted along it

**Q.** `CNC(=O)c1cnc(S(C)(=O)=O)nc1N1CCCC(n2nc(-c3ccc(Oc4ccccc4)cc3)c3c(N)ncnc32)C1` (stereo not drawn) [Compound 8d, 4-(3-(4-Amino-3-(4-phenoxyphenyl)-1H-pyrazolo[3,4-d]pyrimidin-1-yl)piperidin-1-yl)-N-methyl-2-(methylsulfonyl)pyrimidine-5-carboxamide] was tested. Which difference in %Control from compound Ib at 1 µM ([1]; @1000nM) did it give?
**A.** Its difference in %Control from compound Ib at 1 µM is 39%.

**Q.** What about the remaining binding at 1 µM ([1]; @1000nM, read-out: %Control) of the same compound?
**A.** Its remaining binding at 1 µM is 76%.

**Q.** And the remaining binding at 1 µM ([1]; read-out: %Control @1000nM)?
**A.** The remaining binding at 1 µM was 76%.

**Q.** What about the difference in %Control from reference compound Ib at 1 µM (ABL1-nonphosphorylated; @1000nM) of the same compound?
**A.** The difference in %Control from reference compound Ib at 1 µM was 24.5%.

**Q.** What about the remaining binding at 1 µM (ABL1-nonphosphorylated; @1000nM, read-out: %Control) of the same compound?
**A.** The remaining binding at 1 µM was 33%.

**Q.** What about the remaining binding at 1 µM (ABL1-nonphosphorylated; read-out: %Control @1000nM) of the same compound?
**A.** Its remaining binding at 1 µM is 33%.

**Q.** And the difference in %Control versus compound Ib at 1 µM (AXL; @1000nM)?
**A.** Its difference in %Control versus compound Ib at 1 µM is 22%.

**Q.** What about the remaining binding at 1 µM (AXL; @1000nM, read-out: %Control) of the same compound?
**A.** Its remaining binding at 1 µM is 97%.

**Q.** What about the remaining binding at 1 µM (AXL; read-out: %Control @1000nM) of the same compound?
**A.** Its remaining binding at 1 µM is 97%.

**Q.** What about the remaining binding at 1 µM (BTK; @1000nM, read-out: % difference (compound - Ib %Control)) of the same compound?
**A.** Its remaining binding at 1 µM is 0%.

**Q.** And the remaining binding at 1 µM (BTK; @1000nM, read-out: %Control)?
**A.** Its remaining binding at 1 µM is 0%.

**Q.** What about the remaining binding at 1 µM (BTK; read-out: %Control @1000nM) of the same compound?
**A.** The remaining binding at 1 µM was 0%.

**Q.** And the inhibition at 1 µM (BTK; ScanTK, 1 μM)?
**A.** The inhibition at 1 µM was over 99%.

**Q.** And the difference in %Control from compound Ib at 1 µM (DDR1; @1000nM)?
**A.** Its difference in %Control from compound Ib at 1 µM is -14%.

**Q.** What about the remaining binding at 1 µM (DDR1; @1000nM, read-out: %Control) of the same compound?
**A.** Its remaining binding at 1 µM is 64%.

**Q.** What about the remaining binding at 1 µM (DDR1; read-out: %Control @1000nM) of the same compound?
**A.** Its remaining binding at 1 µM is 64%.

**Q.** What about the difference in %Control vs compound Ib at 1 µM (EGFR(G719C); @1000nM) of the same compound?
**A.** The difference in %Control vs compound Ib at 1 µM was -0.45%.

**Q.** And the remaining binding at 1 µM (EGFR(G719C); @1000nM, read-out: %Control)?
**A.** The remaining binding at 1 µM was 0.65%.

**Q.** And the remaining binding at 1 µM (EGFR(G719C); read-out: %Control @1000nM)?
**A.** The remaining binding at 1 µM was 0.65%.

**Q.** What about the difference in %Control vs compound Ib at 1 µM (FLT3-autoinhibited; @1000nM) of the same compound?
**A.** The difference in %Control vs compound Ib at 1 µM was 3%.

**Q.** What about the remaining binding at 1 µM (FLT3-autoinhibited; @1000nM, read-out: %Control) of the same compound?
**A.** The remaining binding at 1 µM was 100%.

**Q.** What about the remaining binding at 1 µM (FLT3-autoinhibited; read-out: %Control @1000nM) of the same compound?
**A.** The remaining binding at 1 µM was 100%.

**Q.** And the remaining binding at 1 µM (KIT(A829P); @1000nM, read-out: %Control)?
**A.** The remaining binding at 1 µM was 63%.

**Q.** What about the remaining binding at 1 µM (KIT(A829P); read-out: %Control @1000nM) of the same compound?
**A.** The remaining binding at 1 µM was 63%.

**Q.** What about the remaining binding at 1 µM (KIT(V559D,V654A); @1000nM, read-out: %Control) of the same compound?
**A.** Its remaining binding at 1 µM is 94%.

**Q.** And the remaining binding at 1 µM (KIT(V559D,V654A); read-out: %Control @1000nM)?
**A.** Its remaining binding at 1 µM is 94%.

**Q.** What about the remaining binding at 1 µM (MST1R; @1000nM, read-out: %Control) of the same compound?
**A.** The remaining binding at 1 µM was 100%.

**Q.** And the remaining binding at 1 µM (MST1R; read-out: %Control @1000nM)?
**A.** Its remaining binding at 1 µM is 100%.

**Q.** And the remaining binding at 1 µM (PDGFRA; @1000nM, read-out: %Control)?
**A.** The remaining binding at 1 µM was 78%.

**Q.** And the remaining binding at 1 µM (PDGFRA; read-out: %Control @1000nM)?
**A.** The remaining binding at 1 µM was 78%.
